Data taken from patent US20170226121A1, “MODULATORS OF VIRUS ASSEMBLY AS ANTIVIRAL AGENTS” (Indiana University Research and Technology Corporation, priority 2011, published 2017).
Values joined by “and” are separate entries in the source; they are usually repeats but may differ in a detail not shown here. Identical values can stand only once. Like-named read-outs stand apart in the source and are kept apart here.

What was measured:
[1] = target: labeled HBV core protein dimer, Cp150Bo (Hepatitis B virus genotype D subtype adw, UniProt P03147, C107A/C48A/C61A/R150C); assay: Fluorescence quenching assay of HBV assembly; type: biochemical; conditions: single time point 24 hr after assembly initiated with NaCl, about 30±15% assembly without stimulation
Sequence of labeled HBV core protein dimer, Cp150Bo (P03147 1-150 C48A/C61A/C107A/R150C): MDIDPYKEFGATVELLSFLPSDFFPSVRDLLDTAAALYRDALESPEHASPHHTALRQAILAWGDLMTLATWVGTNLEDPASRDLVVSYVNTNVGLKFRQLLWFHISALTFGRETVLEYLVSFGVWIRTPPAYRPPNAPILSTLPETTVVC

[2] = system: HBV production in HepAD38 (AD38) cells; assay: Antiviral activity, inducible HBV expression system, AD38 cells; type: cell-based, hepatitis B virus; conditions: for EC90: suppression of HBV production by 90%
Procedure: Antiviral activity was measured using an inducible HBV expression system, AD38 cells. […] Initial experiments tested the activity of 10 μM HAP (percentage viral assembly at 24 hour). For active molecules, effective concentrations were determined for suppression of HBV production by 50% and by 90%; this value is reported in μM.

HepG2 = assay: in vitro
Procedure: (§1) Antiviral activity was measured using an inducible HBV expression system, AD38 cells. (Ladner, S. K. et al., Antimicrob Agents Chemother 41, 1715-20 (1997)). Initial experiments tested the activity of 10 μM HAP (percentage viral assembly at 24 hour). For active molecules, effective concentrations were determined for suppression of HBV production by 50% and by 90%; this value is reported in μM. Compound toxicity was tested in the parent cell line, HepG2. […] All of these experiments were performed blind, in the laboratory of Raymond Schinazi (Emory University).

in vitro = conditions: human
Procedure: as §1

[3] = suppression of HBV production by 50%, read-out: HepAD38 EC50
[4] = value in parentheses in CC50 cell

| Structure (SMILES) | Assembly [1] [%] | other results |
| --- | --- | --- |
| COC(=O)C1=C(C)NC(=S)NC1c1ccc(F)cc1Cl (stereo not shown) [Compound B77] | 15 | – |
| COC(=O)C1=C(C)NC(c2ccccc2)=NC1c1ccc(F)cc1Cl (stereo not shown) [Compound B-7] | 96 | – |
| C#CCNC(=O)c1ccc(C2=NC(c3ccc(F)cc3Cl)C(C(=O)OC)=C(C)N2)nc1 (stereo not shown) [Compound B-15] | 48 | – |
| CCOC(=O)C1=C(c2ccccn2)NC(c2ccccn2)=NC1c1ccc(F)cc1Cl (stereo not shown) [Compound B-23] | 47 | – |
| COC(=O)C1=C(CN2CCN(Cc3ccccn3)CC2)NC(c2ccccn2)=NC1c1ccc(F)cc1Cl (stereo not shown) [Compound B-55] | 60 | – |
| COC(=O)C1=C(CN2CCCC2)NC(c2ccccn2)=NC1c1ccc(F)cc1Cl (stereo not shown) [Compound B-35] | 87 | – |
| C#CCCCCN1CCN(CC2=C(C(=O)OC)C(c3ccc(F)cc3Cl)N=C(c3ccccn3)N2)CC1 (stereo not shown) [Compound B-073] | 69 | % Inhibition ([2]; compound at 10 μM): 64.44%; Δ-Ct-HBV ([2]; compound at 10 μM): 1.5; EC50 [2, 3]: 7600 nM; EC90 [2]: > 10000 nM; CC50 (HepG2): 3.7 µM; (YI) ratio of CC50/EC50, therapeutic index (HepG2; [4]): 0.5 |
| CC1=C(C(=O)OCCN=[N+]=[N-])C(c2ccc(F)cc2Cl)N=C(c2ccncc2)N1 (stereo not shown) [Compound B-2] | 51 | – |
| COC(=O)C1=C(CN2CCOCC2)NC(c2ccncc2)=NC1c1ccc(F)cc1Cl (stereo not shown) [Compound B76] | 36 | – |
| COC(=O)C1=C(C)NC(c2nc3ccc(OC)cc3s2)=NC1c1ccc(F)cc1Cl (stereo not shown) [Compound B-4] | 56 | – |
| COC(=O)C1=C(CN2CCN(CCOCCN=[N+]=[N-])CC2)NC(c2ccccn2)=NC1c1ccc(F)cc1Cl (stereo not shown) [Compound B72] | 29 | – |
| CC1=C(C(=O)OCCC2CCC(CNS(=O)(=O)c3cccc4c(N(C)C)cccc34)C2)C(c2ccc(F)cc2Cl)N=C(c2ccncc2)N1 (stereo not shown) [Compound B-5] | 54 | – |
| CCOC(=O)C1=C(CNC23CC4CC(CC(C4)C2)C3)NC(c2ccccn2)=NC1c1ccc(F)cc1Cl (stereo not shown) [Compound B-57] | 49 | – |
| C#CCNC(=O)CCCC(=O)N1CCN(CC2=C(C(=O)OC)C(c3ccc(F)cc3Cl)N=C(c3ccccn3)N2)CC1 (stereo not shown) [Compound B71] | 133 | – |
| COC(=O)C1=C(C)NC(c2ccc(Br)cn2)=NC1c1ccc(F)cc1Cl (stereo not shown) [Compound B-17] | 87 | – |
| C#CCOC(=O)C1=C(C)NC(c2ccccn2)=NC1c1ccc(F)cc1Cl (stereo not shown) [Compound B-12] | 83 | – |
| C#CCNCC1=C(C(=O)OC)C(c2ccc(F)cc2Cl)N=C(c2ccccn2)N1 (stereo not shown) [Compound B-34] | 65 | – |
| COC(=O)C1=C(C)NC(c2ccncc2)=NC1c1ccc(F)cc1Cl (stereo not shown) [Compound B-1] | 78 | – |
| COC(=O)C1=C(CCl)NC(c2ccccn2)=NC1c1ccc(F)cc1Cl (stereo not shown) [Compound B-25] | 54 | – |
| C#CC(O)(C#C)C1CCN(CC2=C(C(=O)OC)C(c3ccc(F)cc3Cl)N=C(c3ccccn3)N2)CC1 (stereo not shown) [Compound B-59] | 57 | – |
| COC(=O)C1=C(CN2CCN(CC3CCCCC3)CC2)NC(c2ccccn2)=NC1c1ccc(F)cc1Cl (stereo not shown) [Compound B-56] | 15 | – |

| Structure (SMILES) | Assembly [1] [%] | other results |
| --- | --- | --- |
| COC(=O)C1=C(CN2CCNC(=O)CC2)NC(c2ccccn2)=NC1c1ccc(F)cc1Cl (stereo not shown) [Compound B-120] | 96 | % Inhibition ([2]; compound at 10 μM): 99.87%; Δ-Ct-HBV ([2]; compound at 10 μM): 9.65; EC50 [2, 3]: 300 nM; EC90 [2]: 900 nM; CC50 (HepG2): 32 µM; (YI) ratio of CC50/EC50, therapeutic index (HepG2; [4]): 99 |
| COC(=O)C1=C(CN2CCN(CCOCCOCCN=[N+]=[N-])CC2)NC(c2ccccn2)=NC1c1ccc(F)cc1Cl (stereo not shown) [Compound B74] | 21 | – |
| CCOC(=O)C1=C(CNCC23CC4CC(CC(C4)C2)C3)NC(c2ccccn2)=NC1c1ccc(F)cc1Cl (stereo not shown) [Compound B-58] | 42 | – |
| COC(=O)C1=C(C)NC(c2ccccn2)=NC1c1ccc(F)cc1Cl (stereo not shown) [Compound B-6] | 95 | – |
| COC(=O)C1=C(CN2CCN(Cc3ccc(Br)cc3)CC2)NC(c2ccccn2)=NC1c1ccc(F)cc1Cl (stereo not shown) [Compound B-54] | 21 | – |
| COC(=O)C1=C(CN2CCNCC2)NC(c2ccccn2)=NC1c1ccc(F)cc1Cl (stereo not shown) [Compound B-36] | 92 | – |
| C#CCCCCC(=O)N1CCN(CC2=C(C(=O)OC)C(c3ccc(F)cc3Cl)N=C(c3ccccn3)N2)CC1 (stereo not shown) [Compound B75] | 134 | – |
| C#CCNC(=O)C1=C(C)NC(c2ccncc2)=NC1c1ccc(F)cc1Cl (stereo not shown) [Compound B-3] | 48 | – |
| COC(=O)C1=C(CN2CCC3=NN(C)C(=O)C3C2)NC(c2ccccn2)=NC1c1ccc(F)cc1Cl (stereo not shown) [Compound B69] | 54 | – |
| COC(=O)C1=C(C(C)C)NC(c2ccccn2)=NC1c1ccc(F)cc1Cl (stereo not shown) [Compound B-24] | 70 | – |
| COC(=O)C1=C(CNCCOCCOCCN=[N+]=[N-])NC(c2ccccn2)=NC1c1ccc(F)cc1Cl (stereo not shown) [Compound B68] | 49 | – |
| CCOC(=O)C1=C(c2ccccc2)NC(c2ccccn2)=NC1c1ccc(F)cc1Cl (stereo not shown) [Compound B-22] | 77 | – |
| COC(=O)C1=C(C)NC(c2ccccn2)=NC1c1ccc(F)cc1Br (stereo not shown) [Compound B-18] | 93 | – |
| COC(=O)C1=C(CN2CCCCC2)NC(c2ccccn2)=NC1c1ccc(F)cc1Cl (stereo not shown) [Compound B-60] | 60 | – |
| COC(=O)C1=C(CN2CCOCC2)NC(c2ccccn2)=NC1c1ccc(F)cc1Cl (stereo not shown) [Compound B-061] | – | EC50 ([2]; given in place of % inhibition at 10 μM, read-out: EC50 (printed in % Inhibition column)): 550 nM; EC50 [2, 3]: 490 nM; EC90 [2]: 1000 nM; CC50 (HepG2): > 100 µM; (YI) ratio of CC50/EC50, therapeutic index (HepG2; [4]): > 200; Assembly ([1]; listed as B61): 99%; Assembly ([1]; listed as B-61): 51% and 80% |
| COC(=O)C1=C(CCl)NC(c2ccccn2)=NC1c1ccc(F)cc1Cl (stereo not shown) [HAP2, reference compound] | 99 | – |
| Nc1ccn([C@@H]2CS[C@H](CO)O2)c(=O)n1 [Compound 3TC, lamivudine, reference compound] | – | inhibition at 10 µM ([2]; Hepatitis B virus, HePAD38, compound at 10 μM): 98.6%; EC50 ([2]; Hepatitis B virus, HePAD38, suppression of HBV production by 50%, read-out: HepAD38 EC50): 60 nM; EC90 ([2]; Hepatitis B virus, HePAD38): 200 nM; Δ-Ct-HBV ([2]; compound at 10 μM): 6.17; (YI) ratio of CC50/EC50, therapeutic index (HepG2): > 1000; CC50 (in vitro): > 100 µM |
| COC(=O)C1=C(CN2CCN(C(=O)CCCC(=O)NCCCN=[N+]=[N-])CC2)NC(c2ccccn2)=NC1c1ccc(F)cc1Cl (stereo not shown) [Compound B-070] | 123 | % Inhibition ([2]; compound at 10 μM): 99.88%; Δ-Ct-HBV ([2]; compound at 10 μM): 9.77; EC50 [2, 3]: 2300 nM; EC90 [2]: 5900 nM; CC50 (HepG2): 8.4 µM; (YI) ratio of CC50/EC50, therapeutic index (HepG2; [4]): 3.7 |
| C#CCOCC1(COCC#C)COC2(CCN(CC3=C(C(=O)OC)C(c4ccc(F)cc4Cl)N=C(c4ccccn4)N3)CC2)OC1 (stereo not shown) [Compound B67] | 84 | – |
| CC1=C(C(=O)NCc2cn(CCN3C(=O)c4ccccc4C3=O)nn2)C(c2ccc(F)cc2Cl)N=C(c2ccncc2)N1 (stereo not shown) [Compound B-13] | 55 | – |
